Laboratory results taken from US12612441B2, “Polypeptide and therapeutic uses thereof” (Vitalixir (Beijing) Co., Ltd, priority 2019, dated 2026).
Where no end group is shown, it is not given here. [ ]: non-standard residue; d: D form. Aib = CC(C)(N)C(=O)O

The substances below were run on db/db mice (assay: Blood glucose lowering in db/db mice (Example 7)). Conditions: db/db male mice, 30 nmol/kg subcutaneous single dose, blood glucose 0-10 hours, AUC, vs PBS control; FIG. 1.
Assay type: in vivo
Description: db/db mice were housed in animal feeding rooms with strictly controlled environmental conditions. The temperature in the feeding room was maintained at 20-24° C. and the humidity was maintained at 40-70%. The temperature and humidity of the feeding room were monitored in real time by a temperature and humidity meter, and the temperature and humidity were recorded twice a day (once in the morning and once in the afternoon). The lighting in the animal feeding room was controlled by an electronic timing light-on system. The lights were turned on for 12 hours and turned off for 12 hours every day (on at 7:00 in the morning and off at 19:00 in the afternoon). During the experiment, the mice were individually housed in each cage, and toys were provided to the mice in each cage. During the experiment mice had free access to water. The db/db male mice (6 weeks old) were given one week to acclimate to the environmental conditions of the test facility. Baseline blood glucose and body weight were recorded for three days before the test (−3 day to −1 day). The mice were randomly grouped based on three-day blood glucose and body weight, with 6 mice in each group. The mice were injected subcutaneously with PBS (5 ml/kg, control group) or the peptide compounds 1, 2, 8, 16, 18, 19, 24, and 36 (30 nmol/kg) respectively at 10:00 am. Blood was collected at 0 hour before drug administration, and 1, 2, 4, 6, 8 and 10 hours after administration, and blood glucose was measured using a OneTouch glucose meter (Johnson & Johnson) and test strips. Blood glucose curves were plotted with time as the abscissa and the blood glucose value at different time point as the ordinate, the areas under the curve (AUC) were calculated, and the hypoglycemic effects and duration of time of the peptide compounds were compared.

Substance	blood glucose
Y(aib)EGTFTSDLSI(aib)LEKEAVRLFIEWLLAGGPSSGAPPPS-NH2 (YXEGTFTSDLSIXLEKEAVRLFIEWLLAGGPSSGAPPPS; Aib; C-terminal amide; MOD_RES (2)..(2) X=aminoisobutyric aicd; MOD_RES (13)..(13) X=aminoisobutyric aicd; MOD_RES (39)..(39) AMIDATION, C-termianl amidation) [Compound 36]	significantly reduce blood glucose
Y(aib)EGTFTSDYSIYLDEEAVRLFVNWLIAGGPSSGAPPPS-NH2 (Y[Aib]EGTFTSDYSIYLDEEAVRLFVNWLIAGGPSSGAPPPS-NH2; N-terminus assumed; SMILES CC[C@H](C)[C@H](NC(=O)[C@H](CC(C)C)NC(=O)[C@H](Cc1c[nH]c2ccccc12)NC(=O)[C@H](CC(N)=O)NC(=O)[C@@H](NC(=O)[C@H](Cc1ccccc1)NC(=O)[C@H](CC(C)C)NC(=O)[C@H](CCCNC(=N)N)NC(=O)[C@@H](NC(=O)[C@H](C)NC(=O)[C@H](CCC(=O)O)NC(=O)[C@H](CCC(=O)O)NC(=O)[C@H](CC(=O)O)NC(=O)[C@H](CC(C)C)NC(=O)[C@H](Cc1ccc(O)cc1)NC(=O)[C@@H](NC(=O)[C@H](CO)NC(=O)[C@H](Cc1ccc(O)cc1)NC(=O)[C@H](CC(=O)O)NC(=O)[C@H](CO)NC(=O)[C@@H](NC(=O)[C@H](Cc1ccccc1)NC(=O)[C@@H](NC(=O)CNC(=O)[C@H](CCC(=O)O)NC(=O)C(C)(C)NC(=O)[C@@H](N)Cc1ccc(O)cc1)[C@@H](C)O)[C@@H](C)O)[C@@H](C)CC)C(C)C)C(C)C)C(=O)N[C@@H](C)C(=O)NCC(=O)NCC(=O)N1CCC[C@H]1C(=O)N[C@@H](CO)C(=O)N[C@@H](CO)C(=O)NCC(=O)N[C@@H](C)C(=O)N1CCC[C@H]1C(=O)N1CCC[C@H]1C(=O)N1CCC[C@H]1C(=O)N[C@@H](CO)C(N)=O) [Compound 1]	significantly reduce blood glucose
Y(aib)EGTFTSDYSIYLEKEAVRLFVNWLIAGGPSSGAPPPS-NH2 (Y[Aib]EGTFTSDYSIYLEKEAVRLFVNWLIAGGPSSGAPPPS-NH2; N-terminus assumed; SMILES CC[C@H](C)[C@H](NC(=O)[C@H](CC(C)C)NC(=O)[C@H](Cc1c[nH]c2ccccc12)NC(=O)[C@H](CC(N)=O)NC(=O)[C@@H](NC(=O)[C@H](Cc1ccccc1)NC(=O)[C@H](CC(C)C)NC(=O)[C@H](CCCNC(=N)N)NC(=O)[C@@H](NC(=O)[C@H](C)NC(=O)[C@H](CCC(=O)O)NC(=O)[C@H](CCCCN)NC(=O)[C@H](CCC(=O)O)NC(=O)[C@H](CC(C)C)NC(=O)[C@H](Cc1ccc(O)cc1)NC(=O)[C@@H](NC(=O)[C@H](CO)NC(=O)[C@H](Cc1ccc(O)cc1)NC(=O)[C@H](CC(=O)O)NC(=O)[C@H](CO)NC(=O)[C@@H](NC(=O)[C@H](Cc1ccccc1)NC(=O)[C@@H](NC(=O)CNC(=O)[C@H](CCC(=O)O)NC(=O)C(C)(C)NC(=O)[C@@H](N)Cc1ccc(O)cc1)[C@@H](C)O)[C@@H](C)O)[C@@H](C)CC)C(C)C)C(C)C)C(=O)N[C@@H](C)C(=O)NCC(=O)NCC(=O)N1CCC[C@H]1C(=O)N[C@@H](CO)C(=O)N[C@@H](CO)C(=O)NCC(=O)N[C@@H](C)C(=O)N1CCC[C@H]1C(=O)N1CCC[C@H]1C(=O)N1CCC[C@H]1C(=O)N[C@@H](CO)C(N)=O) [Compound 8]	significantly reduce blood glucose
Y(aib)EGTFTSDLSIQLEKEAVKLFIEWLLAGGPSSGAPPPS-NH2 (Y[Aib]EGTFTSDLSIQLEKEAVKLFIEWLLAGGPSSGAPPPS-NH2; N-terminus assumed; SMILES CC[C@H](C)[C@H](NC(=O)[C@H](CO)NC(=O)[C@H](CC(C)C)NC(=O)[C@H](CC(=O)O)NC(=O)[C@H](CO)NC(=O)[C@@H](NC(=O)[C@H](Cc1ccccc1)NC(=O)[C@@H](NC(=O)CNC(=O)[C@H](CCC(=O)O)NC(=O)C(C)(C)NC(=O)[C@@H](N)Cc1ccc(O)cc1)[C@@H](C)O)[C@@H](C)O)C(=O)N[C@@H](CCC(N)=O)C(=O)N[C@@H](CC(C)C)C(=O)N[C@@H](CCC(=O)O)C(=O)N[C@@H](CCCCN)C(=O)N[C@@H](CCC(=O)O)C(=O)N[C@@H](C)C(=O)N[C@H](C(=O)N[C@@H](CCCCN)C(=O)N[C@@H](CC(C)C)C(=O)N[C@@H](Cc1ccccc1)C(=O)N[C@H](C(=O)N[C@@H](CCC(=O)O)C(=O)N[C@@H](Cc1c[nH]c2ccccc12)C(=O)N[C@@H](CC(C)C)C(=O)N[C@@H](CC(C)C)C(=O)N[C@@H](C)C(=O)NCC(=O)NCC(=O)N1CCC[C@H]1C(=O)N[C@@H](CO)C(=O)N[C@@H](CO)C(=O)NCC(=O)N[C@@H](C)C(=O)N1CCC[C@H]1C(=O)N1CCC[C@H]1C(=O)N1CCC[C@H]1C(=O)N[C@@H](CO)C(N)=O)[C@@H](C)CC)C(C)C) [Compound 24]	significantly reduce blood glucose
Y(aib)EGTFTSDYSIYLEKEAVRLFIEWLIAGGPSSGAPPPS-NH2 (Y[Aib]EGTFTSDYSIYLEKEAVRLFIEWLIAGGPSSGAPPPS-NH2; N-terminus assumed; SMILES CC[C@H](C)[C@H](NC(=O)[C@H](CC(C)C)NC(=O)[C@H](Cc1c[nH]c2ccccc12)NC(=O)[C@H](CCC(=O)O)NC(=O)[C@@H](NC(=O)[C@H](Cc1ccccc1)NC(=O)[C@H](CC(C)C)NC(=O)[C@H](CCCNC(=N)N)NC(=O)[C@@H](NC(=O)[C@H](C)NC(=O)[C@H](CCC(=O)O)NC(=O)[C@H](CCCCN)NC(=O)[C@H](CCC(=O)O)NC(=O)[C@H](CC(C)C)NC(=O)[C@H](Cc1ccc(O)cc1)NC(=O)[C@@H](NC(=O)[C@H](CO)NC(=O)[C@H](Cc1ccc(O)cc1)NC(=O)[C@H](CC(=O)O)NC(=O)[C@H](CO)NC(=O)[C@@H](NC(=O)[C@H](Cc1ccccc1)NC(=O)[C@@H](NC(=O)CNC(=O)[C@H](CCC(=O)O)NC(=O)C(C)(C)NC(=O)[C@@H](N)Cc1ccc(O)cc1)[C@@H](C)O)[C@@H](C)O)[C@@H](C)CC)C(C)C)[C@@H](C)CC)C(=O)N[C@@H](C)C(=O)NCC(=O)NCC(=O)N1CCC[C@H]1C(=O)N[C@@H](CO)C(=O)N[C@@H](CO)C(=O)NCC(=O)N[C@@H](C)C(=O)N1CCC[C@H]1C(=O)N1CCC[C@H]1C(=O)N1CCC[C@H]1C(=O)N[C@@H](CO)C(N)=O) [Compound 16]	significantly reduce blood glucose
Y(aib)EGTFTSDLSIQLEKEAARLFIEWLLAGGPSSGAPPPS-NH2 (Y[Aib]EGTFTSDLSIQLEKEAARLFIEWLLAGGPSSGAPPPS-NH2; N-terminus assumed; SMILES CC[C@H](C)[C@H](NC(=O)[C@H](Cc1ccccc1)NC(=O)[C@H](CC(C)C)NC(=O)[C@H](CCCNC(=N)N)NC(=O)[C@H](C)NC(=O)[C@H](C)NC(=O)[C@H](CCC(=O)O)NC(=O)[C@H](CCCCN)NC(=O)[C@H](CCC(=O)O)NC(=O)[C@H](CC(C)C)NC(=O)[C@H](CCC(N)=O)NC(=O)[C@@H](NC(=O)[C@H](CO)NC(=O)[C@H](CC(C)C)NC(=O)[C@H](CC(=O)O)NC(=O)[C@H](CO)NC(=O)[C@@H](NC(=O)[C@H](Cc1ccccc1)NC(=O)[C@@H](NC(=O)CNC(=O)[C@H](CCC(=O)O)NC(=O)C(C)(C)NC(=O)[C@@H](N)Cc1ccc(O)cc1)[C@@H](C)O)[C@@H](C)O)[C@@H](C)CC)C(=O)N[C@@H](CCC(=O)O)C(=O)N[C@@H](Cc1c[nH]c2ccccc12)C(=O)N[C@@H](CC(C)C)C(=O)N[C@@H](CC(C)C)C(=O)N[C@@H](C)C(=O)NCC(=O)NCC(=O)N1CCC[C@H]1C(=O)N[C@@H](CO)C(=O)N[C@@H](CO)C(=O)NCC(=O)N[C@@H](C)C(=O)N1CCC[C@H]1C(=O)N1CCC[C@H]1C(=O)N1CCC[C@H]1C(=O)N[C@@H](CO)C(N)=O) [Compound 18]	significantly reduce blood glucose
